What all share (assay): Kinase profiling in a biochemical assay panel (mobility shift assays and ELISA), %-inhibition at 1 μM; selectivity entropy
In general terms: ELISA stands for enzyme-linked immunosorbent assay.

Test [1] has as its target T1, panel of more than 300 wild-type and mutant kinases (313 kinase panel) (Homo sapiens, UniProt P29320).
T1 sequence (P29320 21-983): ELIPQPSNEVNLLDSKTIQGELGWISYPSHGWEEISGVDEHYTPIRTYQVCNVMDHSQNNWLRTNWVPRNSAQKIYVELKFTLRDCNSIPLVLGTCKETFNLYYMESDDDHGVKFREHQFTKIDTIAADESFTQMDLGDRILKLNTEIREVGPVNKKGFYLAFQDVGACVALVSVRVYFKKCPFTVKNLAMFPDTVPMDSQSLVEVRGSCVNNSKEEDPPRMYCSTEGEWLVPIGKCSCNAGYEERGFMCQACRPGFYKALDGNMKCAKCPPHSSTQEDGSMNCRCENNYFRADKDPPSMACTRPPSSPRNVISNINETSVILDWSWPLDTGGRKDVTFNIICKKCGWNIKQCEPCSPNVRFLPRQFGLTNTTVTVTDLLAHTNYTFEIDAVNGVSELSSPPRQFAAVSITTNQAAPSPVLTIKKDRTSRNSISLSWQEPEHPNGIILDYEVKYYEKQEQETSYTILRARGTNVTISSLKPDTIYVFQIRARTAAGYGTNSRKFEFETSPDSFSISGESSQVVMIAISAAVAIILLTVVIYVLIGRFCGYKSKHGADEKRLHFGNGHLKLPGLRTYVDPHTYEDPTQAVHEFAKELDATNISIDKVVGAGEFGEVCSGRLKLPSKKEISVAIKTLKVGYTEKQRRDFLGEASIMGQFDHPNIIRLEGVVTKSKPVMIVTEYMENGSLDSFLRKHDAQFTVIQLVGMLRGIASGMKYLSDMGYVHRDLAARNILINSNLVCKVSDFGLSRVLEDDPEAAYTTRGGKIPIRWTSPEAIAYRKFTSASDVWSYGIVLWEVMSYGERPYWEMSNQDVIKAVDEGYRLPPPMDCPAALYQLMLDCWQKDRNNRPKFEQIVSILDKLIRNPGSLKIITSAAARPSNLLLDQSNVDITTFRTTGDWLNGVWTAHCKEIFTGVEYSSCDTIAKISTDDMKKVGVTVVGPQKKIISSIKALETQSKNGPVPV

In test [2] the target is T2, panel of more than 300 wild-type and mutant kinases (313 kinase panel) (Homo sapiens, UniProt Q12851).
T2 sequence (Q12851 1-820): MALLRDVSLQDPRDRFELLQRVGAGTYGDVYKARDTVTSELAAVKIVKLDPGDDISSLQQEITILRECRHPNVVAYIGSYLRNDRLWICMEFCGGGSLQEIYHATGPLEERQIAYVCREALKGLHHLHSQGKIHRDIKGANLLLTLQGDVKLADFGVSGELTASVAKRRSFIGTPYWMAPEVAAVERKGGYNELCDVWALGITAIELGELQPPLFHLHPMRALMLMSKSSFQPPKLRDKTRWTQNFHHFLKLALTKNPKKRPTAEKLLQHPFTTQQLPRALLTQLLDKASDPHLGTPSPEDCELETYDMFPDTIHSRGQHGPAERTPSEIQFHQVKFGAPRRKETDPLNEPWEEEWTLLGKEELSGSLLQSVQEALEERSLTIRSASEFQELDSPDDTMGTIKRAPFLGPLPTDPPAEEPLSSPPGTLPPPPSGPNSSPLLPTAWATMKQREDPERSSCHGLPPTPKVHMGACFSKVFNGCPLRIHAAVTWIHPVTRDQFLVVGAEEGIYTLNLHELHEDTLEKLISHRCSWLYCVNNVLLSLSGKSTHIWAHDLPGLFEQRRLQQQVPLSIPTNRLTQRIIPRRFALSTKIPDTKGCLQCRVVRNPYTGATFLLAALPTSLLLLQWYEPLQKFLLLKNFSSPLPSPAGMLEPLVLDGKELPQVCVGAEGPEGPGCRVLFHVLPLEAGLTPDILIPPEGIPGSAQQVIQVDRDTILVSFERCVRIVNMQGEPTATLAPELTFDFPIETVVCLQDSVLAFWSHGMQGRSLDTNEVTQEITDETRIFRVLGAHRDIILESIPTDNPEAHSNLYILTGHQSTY

Test [3] deals with panel of more than 300 wild-type and mutant kinases (313 kinase panel) (Homo sapiens, UniProt P04626). The settings on record: kinase HER2; compound at 1 μM.
Chain of panel of more than 300 wild-type and mutant kinases (313 kinase panel) (Homo sapiens, UniProt P04626) (P04626 23-1255, change not shown): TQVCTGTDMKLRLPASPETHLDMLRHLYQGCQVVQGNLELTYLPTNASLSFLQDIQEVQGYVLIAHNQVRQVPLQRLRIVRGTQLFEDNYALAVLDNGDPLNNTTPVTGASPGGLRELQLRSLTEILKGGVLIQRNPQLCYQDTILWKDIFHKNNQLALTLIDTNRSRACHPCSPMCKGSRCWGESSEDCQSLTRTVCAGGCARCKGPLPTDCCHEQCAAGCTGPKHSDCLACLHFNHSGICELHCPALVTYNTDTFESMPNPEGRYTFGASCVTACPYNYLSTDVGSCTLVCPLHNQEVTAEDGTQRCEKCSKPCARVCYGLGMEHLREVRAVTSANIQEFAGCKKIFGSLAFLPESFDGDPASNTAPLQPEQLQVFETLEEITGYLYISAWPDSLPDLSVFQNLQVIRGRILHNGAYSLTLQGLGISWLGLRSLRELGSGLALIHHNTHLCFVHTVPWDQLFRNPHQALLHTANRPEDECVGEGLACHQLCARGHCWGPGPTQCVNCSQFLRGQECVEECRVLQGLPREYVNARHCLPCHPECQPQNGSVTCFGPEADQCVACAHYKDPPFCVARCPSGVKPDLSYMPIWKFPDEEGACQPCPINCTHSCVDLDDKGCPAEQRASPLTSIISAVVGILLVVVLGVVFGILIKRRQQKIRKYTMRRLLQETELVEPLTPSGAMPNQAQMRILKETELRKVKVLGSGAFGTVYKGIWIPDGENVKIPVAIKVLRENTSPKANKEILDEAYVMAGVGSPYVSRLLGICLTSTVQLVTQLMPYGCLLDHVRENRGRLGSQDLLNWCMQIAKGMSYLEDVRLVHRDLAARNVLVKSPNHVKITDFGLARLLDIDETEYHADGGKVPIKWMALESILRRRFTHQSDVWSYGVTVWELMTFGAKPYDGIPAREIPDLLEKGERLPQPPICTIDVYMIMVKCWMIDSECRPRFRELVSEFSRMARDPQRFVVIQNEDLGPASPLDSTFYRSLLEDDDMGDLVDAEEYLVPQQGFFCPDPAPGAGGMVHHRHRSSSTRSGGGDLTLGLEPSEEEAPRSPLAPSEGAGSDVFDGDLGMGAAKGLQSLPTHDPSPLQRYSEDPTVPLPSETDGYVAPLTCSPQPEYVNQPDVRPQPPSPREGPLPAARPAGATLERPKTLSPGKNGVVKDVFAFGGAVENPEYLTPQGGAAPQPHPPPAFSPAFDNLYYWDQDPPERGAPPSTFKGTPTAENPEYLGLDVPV
For test [4], the target named is T3, panel of more than 300 wild-type and mutant kinases (313 kinase panel) (Homo sapiens, UniProt O00418).
T3 sequence (O00418 1-725): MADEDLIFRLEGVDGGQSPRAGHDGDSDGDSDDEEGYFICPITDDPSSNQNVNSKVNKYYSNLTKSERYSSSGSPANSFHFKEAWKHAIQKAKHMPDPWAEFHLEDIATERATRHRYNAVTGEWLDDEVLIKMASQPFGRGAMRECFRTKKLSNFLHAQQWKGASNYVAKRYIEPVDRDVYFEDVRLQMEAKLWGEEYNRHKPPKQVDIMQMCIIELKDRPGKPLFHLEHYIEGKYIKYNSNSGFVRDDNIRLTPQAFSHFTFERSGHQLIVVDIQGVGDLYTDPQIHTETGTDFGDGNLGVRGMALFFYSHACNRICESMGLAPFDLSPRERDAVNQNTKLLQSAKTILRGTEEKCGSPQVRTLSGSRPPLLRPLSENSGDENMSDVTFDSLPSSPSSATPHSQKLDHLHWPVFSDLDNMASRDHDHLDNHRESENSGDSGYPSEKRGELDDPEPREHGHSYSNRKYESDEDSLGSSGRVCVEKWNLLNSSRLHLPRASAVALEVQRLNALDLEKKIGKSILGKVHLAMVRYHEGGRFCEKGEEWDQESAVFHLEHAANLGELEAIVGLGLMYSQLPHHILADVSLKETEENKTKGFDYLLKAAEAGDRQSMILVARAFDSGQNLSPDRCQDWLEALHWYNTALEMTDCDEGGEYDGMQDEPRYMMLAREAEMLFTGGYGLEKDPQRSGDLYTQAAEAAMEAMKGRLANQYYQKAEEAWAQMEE

In test [5] the target is panel of more than 300 wild-type and mutant kinases (313 kinase panel) (Homo sapiens, UniProt P49759).
Chain of panel of more than 300 wild-type and mutant kinases (313 kinase panel) (Homo sapiens, UniProt P49759) (P49759 whole entry, change not shown): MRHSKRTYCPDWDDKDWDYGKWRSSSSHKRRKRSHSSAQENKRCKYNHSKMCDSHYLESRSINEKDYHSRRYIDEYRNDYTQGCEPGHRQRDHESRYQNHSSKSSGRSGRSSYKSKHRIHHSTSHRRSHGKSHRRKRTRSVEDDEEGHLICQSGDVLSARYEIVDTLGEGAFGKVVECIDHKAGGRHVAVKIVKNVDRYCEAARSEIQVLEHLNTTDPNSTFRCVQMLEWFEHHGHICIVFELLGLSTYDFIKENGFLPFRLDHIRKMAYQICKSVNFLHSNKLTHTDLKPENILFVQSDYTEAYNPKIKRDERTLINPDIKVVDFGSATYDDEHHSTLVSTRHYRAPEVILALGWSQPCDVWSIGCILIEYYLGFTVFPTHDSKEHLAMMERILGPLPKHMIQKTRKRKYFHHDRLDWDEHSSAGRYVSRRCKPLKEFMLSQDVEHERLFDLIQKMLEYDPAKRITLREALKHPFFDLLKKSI
[6] abbreviates: kinase MAP4K2, compound at 1 μM.

As to `CO[C@H]1C[C@@H]2CC[C@@H](C)[C@@](O)(O2)C(=O)C(=O)N2CCCC[C@H]2C(=O)O[C@H]([C@H](C)C[C@@H]2CC[C@@H](OCCO)[C@H](OC)C2)CC(=O)[C@H](C)/C=C(\C)[C@@H](O)[C@@H](OC)C(=O)[C@H](C)C[C@H](C)/C=C/C=C/C=C/1C` [everolimus], the “%-inhibition of EPHA3” value in test [1] (kinase EPHA3, compound at 1 μM) was -20%. Further, the “%-inhibition of MAP4K2” value in test [2] (setting [6]) is on record as -7%. In addition, in test [3], the “%-inhibition of HER2” value was -2.5%. Besides, the “%-inhibition of EEF2K” value in test [4] (kinase EEF2K, compound at 1 μM) is on record as -14%. Besides, the “%-inhibition, CLK1” value in test [5] (kinase CLK1, 1 μM compound) is -7.39%.
For the compound `CCN(CC)CCNC(=O)c1c(C)[nH]c(/C=C2\C(=O)Nc3ccc(F)cc32)c1C` [sunitinib], in test [2] (setting [6]), the “%-inhibition of MAP4K2” value turned out to be 85%.
With `CC(=O)Nc1cccc(-n2c(=O)n(C3CC3)c(=O)c3c(Nc4ccc(I)cc4F)n(C)c(=O)c(C)c32)c1` [trametinib], the “%-inhibition of EPHA3” value in test [1] (kinase EPHA3, compound at 1 μM) is -6%. The “%-inhibition of MAP4K2” value in test [2] (setting [6]) was determined as 4%. The “%-inhibition of HER2” value in test [3] was -5.36%. In test [4] (kinase EEF2K, compound at 1 μM), the “%-inhibition of EEF2K” value is on record as -3.43%. In addition, the “%-inhibition, CLK1” value in test [5] (kinase CLK1, 1 μM compound) was -0.618%.
Taken in the same sequence, the figures for `O=S(=O)(c1cccc2cnccc12)N1CCCNCC1` [fasudil] were -7%, 4%, 0.678%, -3.43% and 32%.
Taken in the same sequence, the figures for `N#CC[C@H](C1CCCC1)n1cc(-c2ncnc3[nH]ccc23)cn1` [ruxolitinib] were 2%, 7%, -3.75%, -6% and 33%.
Regarding `CC(C)(C)c1nc(-c2cccc(NS(=O)(=O)c3c(F)cccc3F)c2F)c(-c2ccnc(N)n2)s1` [dabrafenib], the “%-inhibition of EPHA3” value in test [1] (kinase EPHA3, compound at 1 μM) was found to be 18%. For the same compound, in test [2] (setting [6]), the “%-inhibition of MAP4K2” value was 8%. The “%-inhibition of HER2” value in test [3] worked out at 50%. Further, the “%-inhibition, CLK1” value in test [5] (kinase CLK1, 1 μM compound) was 7%.
As for `C[C@@H](Oc1cc(-c2cnn(C3CCNCC3)c2)cnc1N)c1c(Cl)ccc(F)c1Cl` [crizotinib], the “%-inhibition of EPHA3” value in test [1] (kinase EPHA3, compound at 1 μM) is 19%. Moreover, the “%-inhibition of HER2” value in test [3] is given as -0.714%. Also, the “%-inhibition of EEF2K” value in test [4] (kinase EEF2K, compound at 1 μM) was -4.6%. In test [5] (kinase CLK1, 1 μM compound), the “%-inhibition, CLK1” value came out at 13%.
Regarding `COc1cc2c(Nc3ccc(Br)cc3F)ncnc2cc1OCC1CCN(C)CC1` [vandetanib], the “%-inhibition of EPHA3” value in test [1] (kinase EPHA3, compound at 1 μM) stood at 57%. Besides, the “%-inhibition of HER2” value in test [3] came out at 67%. Also, the “%-inhibition of EEF2K” value in test [4] (kinase EEF2K, compound at 1 μM) was -10%. In test [5] (kinase CLK1, 1 μM compound), the “%-inhibition, CLK1” value was found to be 14%.
Take `C#Cc1cccc(Nc2ncnc3cc(OCCOC)c(OCCOC)cc23)c1` [erlotinib]: the “%-inhibition of EPHA3” value in test [1] (1 µM) was found to be 15%. Moreover, in test [2] (1 µM), the “%-inhibition of MAP4K2” value is given as 9%. In addition, the “%-inhibition of EEF2K” value in test [4] (1 µM) is -0.225%. For the same compound, the “%-inhibition, CLK1” value in test [5] (1 µM) is 21%.
For the compound `Cc1ccc(C(=O)Nc2ccc(CN3CCN(C)CC3)c(C(F)(F)F)c2)cc1C#Cc1cnc2cccnn12` [ponatinib], the “%-inhibition of EPHA3” value in test [1] (kinase EPHA3, compound at 1 μM) is 102%. Further, the “%-inhibition of MAP4K2” value in test [2] (setting [6]) is 99%. Further, the “%-inhibition of HER2” value in test [3] worked out at 88%. Also, in test [4] (kinase EEF2K, compound at 1 μM), the “%-inhibition of EEF2K” value is -4%.
Taken in the same sequence, the figures for `CO[C@H]1C[C@@H]2CC[C@@H](C)[C@@](O)(O2)C(=O)C(=O)N2CCCC[C@H]2C(=O)O[C@H]([C@H](C)C[C@@H]2CC[C@@H](OC(=O)C(C)(CO)CO)[C@H](OC)C2)CC(=O)[C@H](C)/C=C(\C)[C@@H](O)[C@@H](OC)C(=O)[C@H](C)C[C@H](C)/C=C/C=C/C=C/1C` [temsirolimus] were -21%, -3%, -0.179% and -6%.
Regarding `COc1cc(Nc2c(C#N)cnc3cc(OCCCN4CCN(C)CC4)c(OC)cc23)c(Cl)cc1Cl` [bosutinib], the “%-inhibition of EPHA3” value in test [1] (kinase EPHA3, compound at 1 μM) is listed as 67%. In test [2] (setting [6]), the “%-inhibition of MAP4K2” value came out at 98%. The “%-inhibition of HER2” value in test [3] was found to be 88%. The “%-inhibition of EEF2K” value in test [4] (kinase EEF2K, compound at 1 μM) is -7%.

For the origin of these results see article PMC3961306, “Comparison of the Cancer Gene Targeting and Biochemical Selectivities of All Targeted Kinase Inhibitors Approved for Clinical Use” (PLoS ONE, 2014).
